Paper PMC4085797, “Synthetic Inositol Phosphate Analogs Reveal that PPIP5K2 Has a Surface-Mounted Substrate Capture Site that Is a Target for Drug Discovery” (Chemistry & Biology, 2014)

Key:
Format in all cases: biochemical
human PPIP5K2^KD = molecular target: T1, human PPIP5K2^KD (Homo sapiens, UniProt O43314); assay: HPLC assay of [3H]InsP6 phosphorylation (InsP6 kinase activity)
T1 construct: The kinase domain of human PPIP5K2 (PPIP5K2^KD; residues 1–366); made in house
T1 sequence (O43314 1-366): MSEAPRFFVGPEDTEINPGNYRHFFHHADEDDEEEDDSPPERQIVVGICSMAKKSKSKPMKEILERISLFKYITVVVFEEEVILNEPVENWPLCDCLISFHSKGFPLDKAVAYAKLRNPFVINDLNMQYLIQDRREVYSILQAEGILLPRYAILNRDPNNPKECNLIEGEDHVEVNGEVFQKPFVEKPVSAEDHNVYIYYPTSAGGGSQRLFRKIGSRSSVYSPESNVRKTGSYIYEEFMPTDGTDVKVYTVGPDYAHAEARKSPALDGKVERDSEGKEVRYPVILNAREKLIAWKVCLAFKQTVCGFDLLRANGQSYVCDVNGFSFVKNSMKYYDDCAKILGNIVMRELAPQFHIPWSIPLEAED
Experimental: (§1) The initial InsP6 concentration was either 500 nM, 70 nM, or 40 nM. Various concentrations of 2,5-di-O-Bn-InsP4 were present as indicated. Radioactivity was assessed using an in-line Flo1 detector. The ADP-driven dephosphorylation of 100 nM 1,5-[PP]2-InsP4 by PPIP5K2^KD was usually determined by a luminescence-based assay of ATP accumulation ([Riley et al., 2012; Weaver et al., 2013]). The IC50 values were determined using GraphPad Prism v6.02 (n ≥ 3). In some experiments, 1,5-[PP]2-[^3H]InsP4 dephosphorylation by PPIP5K2^KD was assayed in 50 μl buffer containing 50 mM KCl, 20 mM HEPES pH 7.0, 7 mM MgSO4, 5 mM ADP, 1 mM EDTA. Reactions were then quenched, neutralized, and analyzed with HPLC using a Partisphere SAX column ([Weaver et al., 2013]); 1 ml fractions were collected for liquid scintillation spectrometry. The ATPase activity of PPIP5K2^KD (10–270 μg/ml) was assayed from Pi release following incubation at 37°C for 120–180 min in 20 μl reaction mixtures containing 20 mM Tris/HCl, pH 7.5, 10 mM ATP, 100 mM KCl, 0.1 mM EDTA, and 13 mM MgCl2.
S1, related to Figure 4. 2,5-Di-O-Bn-InsP4 (10) inhibits both ADP-driven [PP]2-[3H]InsP4 dephosphorylation and ATP-driven [3H]InsP6 phosphorylation by PPIP5K2 […]
E:Incubation buffers (see Methods) contained 500 nM [3H]InsP6 plus either 12.5 ng PPIP5K2 KD (panel D) or 30 ng PPIP5K2KD plus 1.5 μM 2,5-di-O-Bn-InsP4 (10) (panel E). Reactions rates in the absence and presence of 2,5-di-O-Bn-InsP4 (10) were calculated to be 52 and 21 nmol/mg protein/min, respectively. […]

human IP6K2 = molecular target: T2, human IP6K2 (Homo sapiens, UniProt Q9UHH9); assay: HPLC assay of [3H]InsP6 phosphorylation by IP6K2; conditions: [InsP6] = 500 nM; data not shown; read-out: IC50, inhibition of IP6K2 activity
T2 construct: Full-length human IP6K2, the kinase domain of human PPIP5K2; made in house
T2 sequence (Q9UHH9 1-426): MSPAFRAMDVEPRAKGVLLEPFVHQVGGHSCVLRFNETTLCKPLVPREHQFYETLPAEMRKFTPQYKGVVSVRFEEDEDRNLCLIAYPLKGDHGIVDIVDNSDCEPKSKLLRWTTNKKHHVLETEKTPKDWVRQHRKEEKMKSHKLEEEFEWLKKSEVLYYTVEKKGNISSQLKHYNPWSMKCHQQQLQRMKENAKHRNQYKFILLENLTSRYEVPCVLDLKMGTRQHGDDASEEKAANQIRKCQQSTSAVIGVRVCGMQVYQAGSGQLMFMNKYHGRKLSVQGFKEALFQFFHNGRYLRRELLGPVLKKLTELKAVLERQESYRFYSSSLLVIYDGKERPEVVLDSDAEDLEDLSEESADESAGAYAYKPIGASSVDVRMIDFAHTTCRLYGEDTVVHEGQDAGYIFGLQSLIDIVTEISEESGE
Experimental: as §1

[1] = molecular target: T3, PPIP5K2^KD (kinase domain of human PPIP5K2) (Homo sapiens, UniProt O43314); assay: HPLC analysis of 1,5-[PP]2-[3H]InsP4 dephosphorylation; conditions: 2 μM analog, 200 nM 1,5-[PP]2-[3H]InsP4, 20 min; rate in absence 192
T3 construct: The kinase domain of human PPIP5K2 (PPIP5K2^KD; residues 1–366); made in house
T3 sequence (O43314 1-366): T1 sequence (O43314 1-366)
Experimental: as §1
S1, related to Figure 4. 2,5-Di-O-Bn-InsP4 (10) inhibits both ADP-driven [PP]2-
[3H]InsP4 dephosphorylation and ATP-driven [3H]InsP6 phosphorylation by PPIP5K2 […]
Bn-InsP4 (10) (panel C). After 20 min reactions were quenched and analyzed by HPLC […]
O-Bn-InsP4 (10) were calculated to be 192 and 95 nmol/mg protein/min, respectively. […]

reaction rate of [3H]InsP6 phosphorylation in the presence of analog (human PPIP5K2^KD; 1.5 μM analog, 500 nM [3H]InsP6, rate in absence 52): 21 nmol/mg protein/min
nature of inhibition of InsP6 kinase activity (human PPIP5K2^KD; Dixon plot, Figure 4C): competitive
Ki (human PPIP5K2^KD; Figure 4C, read-out: Ki, inhibition of InsP6 kinase activity (Dixon plot)): 240 nM
IC50 (human PPIP5K2^KD; [InsP6] = 500 nM, read-out: IC50, inhibition of InsP6 phosphorylation): 1000 nM
IC50 (human IP6K2): 63000 nM
reaction rate of [PP]2-[3H]InsP4 dephosphorylation in the presence of analog [1]: 95 nmol/mg protein/min
Structure (SMILES): O=P(O)(O)O[C@@H]1[C@@H](OCc2ccccc2)[C@H](OP(=O)(O)O)[C@@H](OP(=O)(O)O)[C@@H](OCc2ccccc2)[C@H]1OP(=O)(O)O [compound 10, 2,5-di-O-Bn-InsP4]
